Our source for the EC50 values is patent publication US20180346473A1, “FUSED BICYCLIC COMPOUNDS” (Akarna Therapeutics, Ltd., priority 2017, published 2018).

The structures appear in SMILES notation. pEC50: −log10 of the molar value.

The target of the assay is T1, FXR (Homo sapiens, UniProt Q96RI1).
T1 sequence (Q96RI1 1-486): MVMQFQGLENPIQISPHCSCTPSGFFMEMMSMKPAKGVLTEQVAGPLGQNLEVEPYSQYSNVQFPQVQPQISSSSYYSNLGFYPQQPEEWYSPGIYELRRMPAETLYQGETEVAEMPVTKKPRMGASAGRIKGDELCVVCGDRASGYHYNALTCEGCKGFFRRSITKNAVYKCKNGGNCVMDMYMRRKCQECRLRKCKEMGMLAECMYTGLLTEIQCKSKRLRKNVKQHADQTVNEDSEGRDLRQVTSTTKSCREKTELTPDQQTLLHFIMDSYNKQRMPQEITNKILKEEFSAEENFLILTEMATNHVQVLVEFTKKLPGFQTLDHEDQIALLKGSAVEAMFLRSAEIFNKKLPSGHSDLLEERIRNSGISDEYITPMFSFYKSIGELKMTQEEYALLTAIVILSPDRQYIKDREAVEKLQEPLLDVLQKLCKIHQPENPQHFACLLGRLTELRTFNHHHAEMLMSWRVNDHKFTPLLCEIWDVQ
Nature of the assay: FXR Agonist Assay (Gaussia luciferase reporter in cells). Type of assay: cell-based. Conditions: 20 hours incubation at 37° C., Gaussia luciferase luminescence, normalized to DMSO control. As for the experimental part:
Starting from 3.33 mM of compound in DMSO solution, a 10-point 3-fold serial dilution was made by diluting 5 μL of compound into 10 μL of DMSO. The serially diluted compound was then diluted 1:33 into DMEM. This medium was then diluted ten-fold into the culture medium with the cells (10 μL/well). All concentration points are assayed in duplicate. Plates were incubated at 37° C. for 20 hours. After the incubation, 20 μL of culture medium were removed from each well and mixed with 50 μL of assay solution (Pierce™ Gaussia Luciferase Flash Assay Kit). The luminescence was measured immediately after addition of the Luc substrate with an Envision microplate reader. The raw data was uploaded to CDD and dose-response curves were generated using the Levenberg-Marquardt algorithm integrated into CDD. A negative control DMSO is included on each plate and used to normalize the data with the CDD built-in normalization function.
On the technique in general: In a reporter assay the amount or activity of a reporter protein is the signal.
For `CC(C)NC(=O)C1=CN(C(=O)c2ccc(F)c(F)c2)CC(C)(C)c2c(C(F)(F)F)n[nH]c21` [Compound 1, (E)-6-(3,4-difluorobenzoyl)-N-isopropyl-4,4-dimethyl-3-(trifluoromethyl)-1,4,5,6-tetrahydropyrazolo[3,4-d]azepine-8-carboxamide], the negative logarithm of the EC50 (pEC50) is more than 6.30. Next, `CC(C)OC(=O)C1=CN(C(=O)c2ccc(OCCN3CCOCC3)cc2)CC(C)(C)c2c(C(F)(F)F)n[nH]c21` [Compound 2, (E)-isopropyl 4,4-dimethyl-6-(4-(2-morpholinoethoxy)benzoyl)-3-(trifluoromethyl)-1,4,5,6-tetrahydropyrazolo[3,4-d]azepine-8-carboxylate]: more than 6.30. The result for `CC(C)OC(=O)C1=CN(C(=O)c2ccc(OCCN3CCOCC3)c(F)c2)CC(C)(C)c2c(C(F)(F)F)n[nH]c21` [Compound 3, (E)-isopropyl 6-(3-fluoro-4-(2-morpholinoethoxy)benzoyl)-4,4-dimethyl-3-(trifluoromethyl)-1,4,5,6-tetrahydropyrazolo[3,4-d]azepine-8-carboxylate] reads more than 6.30.

As a reminder, the pEC50 is −log10 of the EC50, conventionally taken in molar units. A lower pEC50 goes with a large EC50.
